Assay results published in patent US20100267616A1, “ACUTE R[…]” (ImmuneRegen Biosciences, Inc., priority 2003, published 2010).

Tested on: diesel fuel smoke lung injury (model of ARDS and SARS)
Design: species or system rats and rabbits
Details: in vivo, iv

Sar^9, Met (02) 11-Substance P
6-keto-PGF1α: decreased | PGE2: decreased | clara cell necrosis: attenuated | damage to the alveolar-capillary barrier membrane: attenuates | pulmonary alveolar macrophage number: reduced
